Marks after values point to notes of the source that are not given here.

Here are results for eight molecules from patent US12326385B2, “Cell-permeable fluorogenic fluorophores” (MAX-PLANCK-GESELLSCHAFT ZUR FÖRDERUNG DER WISSENSCHAFTEN E. …, priority 2018, dated 2025).

The nature of data set [1]: UV-Vis and fluorescence spectroscopy of free dye or probe in buffer or SDS. Type of data set: physicochemical. How it is done:
UV-Vis and Fluorescence Spectroscopy
Spectroscopy was performed using 96-well plate (Thermo Fisher) with optical bottom. All measurements were taken at ambient temperature (25±2° C.). Absorption and fluorescence spectra were recorded on Spark® microplate reader (Tecan). Maximum absorption wavelength (λabs), and maximum emission wavelength (λem) were taken in 10 mM HEPES, pH 7.3 buffer unless otherwise noted; reported values for ε are averages (n=3). Normalized spectra are shown for clarity.
(§1) SDS (10% in 10 mM HEPES) was added with dilution of 100 folds as a control group. Absorbance and fluorescence measurements were performed in 96-well plate (Thermos Fisher) with optical bottom.

Data set [2] is described as follows: UV absorbance spectra in water-dioxane mixtures (D50). Type of data set: physicochemical. Particulars: dioxane-H2O mixture (v/v: 90/10-10/90), dielectric constant at half-maximal zwitterion absorbance. From the text:
The inventors' efforts to improve the permeability and fluorogenicity of rhodamine derivatives for live-cell imaging focused on increasing the propensity of rhodamines to form the spirocyclic, non-fluorescent form without affecting the spectroscopic properties of the parental molecule. The inventors initially considered replacing the carboxylic acid responsible for formation of the spirolactone with an amide. However, such rhodamine derivatives have been reported to strongly favor spirolactams at physiological pH, making them unsuitable for live-cell imaging. The inventors therefore attempted to destabilize the spirolactam by attaching different electron-withdrawing groups to the underlying amides. Specifically, the inventors converted 6-carboxytetramethylrhodamine (6-TAMRA), a widely used fluorophore with good photophysical properties, into the corresponding acyl cyanamide (132), acyl sulfonamide (133) and acyl sulfamide (134 and 135), (FIG. 32c). The acyl cyanamide of rhodamine B was previously reported to exist as a fluorescent zwitterion at physiological pH. Acyl sulfonamides and acyl sulfamides are used in medicinal chemistry as anionic pharmacophores. Amides 132-135 were prepared in three simple steps from commercially available 6-TAMRA (FIG. 32c). To investigate the propensity of these amides to form the corresponding spirolactams, the inventors measured their absorbance spectra in water-dioxane mixtures with […]. The equilibrium between the zwitterionic and spirocyclic form can then be characterized by the D50 value, which is defined as the dielectric constant at which absorbance of the fluorescent zwitterion is decreased by half compared to the highest recorded absorbance value measured in dioxane-water mixtures. […] In comparison, the D50 value of TAMRA is around 10 showing that in aqueous solution TAMRA exists predominantly in its open form and TAMRA-based probes are usually not fluorogenic. The measured D50 values of amides 132-135 ranged from 32 to around 60 (FIG. 32d), which indicates the potential of these fluorophores for the generation of permeable and fluorogenic probes. […] The possibility to tune the equilibrium between the open and closed form of the fluorophore by varying the substituents on the amide is an important feature of this approach.
Measurements of UV Absorbance Spectra in Water-Dioxane Mixtures
Solutions of 5 μM Rhodamine B, RhB-CH3 (201, Z=CH3), RhB-Ben (201, Z=CH2Ph), RhB-CN (201, Z=CN), RhB-SCH3 (115), RhB-SNH2 (116), RhB-SNMe2 (117), RhB-CONH2 (118), WS1-SCF3, (119) WS1-SCH3 (120), WS1-CN (121), WS1-SNH2 (122), WS1-SO (123), WS1-UREA (124) in water-dioxane mixtures containing 10%, 20%, 30%, 40%, 50%, 60%, 70%, 80% and 90% of dioxane (by volume) were prepared. The absorbance spectra were recorded using a Spark® microplate reader (Tecan). The spectra were integrated from 400 to 700 nm for Rhodamine B-based fluorophores and from 350 to 750 nm for WS1-based fluorophores using the software Prism 7. Normalized integrals were plotted against dielectric constant of water-dioxane mixture.

The test system of a further data set is SNAP-Halo-tag. Put plainly: Increase in absorbance and fluorescence on binding to SNAP-HaloTag protein in vitro. The format is biochemical. Particulars: binding with SNAP-Halo-tag. How it is done:
Measurement of Increase in Absorbance and Fluorescence.
SNAP-HaloTag protein were used as a 85 μM-200 μM solution in 75 mM NaCl, 50 mM TRIS-HCl, pH 7.4 with 50% v/v glycerol (TBS-glycerol). SNAPTag and HaloTag based fluorogenic probes were diluted to 1.0-2.0 μM in 10 mM HEPES, pH 7.3. Then an aliquot of SNAPTag/HaloTag protein (1.5-2.0 equiv) was added and the resulting mixture was incubated until consistent absorbance signal was observed (˜60 min).
as §1

Where [3] appears, read: 0.1% SDS in HEPES buffer (pH 7.3).

As to `CN(C)c1ccc2c(-c3cc(C(=O)[O-])ccc3C(=O)O)c3ccc(=[N+](C)C)cc-3oc2c1` [6-TAMRA, 6-carboxytetramethylrhodamine, reference compound], the Φ in data set [1] (setting [3]) is recorded as 0.39. For the same molecule, in data set [1] (HEPES buffer (pH 7.3)), the Φ was found to be 0.43, the ε is on record as 84,000^a M^−1cm^−1, the λabs is 550 nm and the λem was determined as 578 nm. In addition, the D50 in data set [2] is listed as 12^d. Moreover, the D50 result in data set [2] (listed as TAMRA) is reported as “around 10”.
Take `CN(C)S(=O)(=O)N1C(=O)c2ccc(C(=O)O)cc2C12c1ccc(N)cc1Oc1cc(N)ccc12` [compound 21]: in data set [1] (setting [3]), the Φ is 0.69. In data set [1] (HEPES buffer (pH 7.3)), the Φ is listed as 0.68, the ε is recorded as 74,000^a M^−1cm^−1, the λabs was found to be 502 nm and the λem came out at 526 nm. Further, the D50 in data set [2] was 70^d. Also, in data set [2] (listed as MaP510), the D50 came to 70.
Take `CN1CCc2cc3c(cc21)[Si](C)(C)c1cc2c(cc1C31OC(=O)c3ccc(C(=O)O)cc31)CCN2C` [compound 35, reference compound]: the Φ in data set [1] (setting [3]) turned out to be 0.16. Besides, in data set [1] (HEPES buffer (pH 7.3)), the ε is 104,000^a M^−1cm^−1, the λabs was 694 nm and the λem is 718 nm. Moreover, the D50 in data set [2] is reported as 54^d. This molecule gave a Φ with SNAP-Halo-tag of 0.17.
For the molecule `CN(C)c1ccc2c(c1)Oc1cc(N(C)C)ccc1C21c2cc(C(=O)O)ccc2C(=O)N1C#N` [compound 132], the Φ in data set [1] (setting [3]) is on record as 0.45^a/0.45^c. Also, in data set [1] (HEPES buffer (pH 7.3)), the Φ is 0.45^a/0.45^c, the ε is 89,000^a M^−1cm^−1, the λabs is 552 nm and the λem came out at 580 nm. In data set [2], the D50 is reported as 32^d.
Turning to `CN(C)c1ccc2c(c1)Oc1cc(N(C)C)ccc1C21c2cc(C(=O)O)ccc2C(=O)N1S(C)(=O)=O` [compound 133], the Φ in data set [1] (setting [3]) was determined as 0.46. In addition, in data set [1] (HEPES buffer (pH 7.3)), the Φ is on record as 0.43, the ε was 89,000^a M^−1cm^−1, the λabs is 553 nm and the λem was found to be 580 nm. For the same molecule, the D50 in data set [2] is 44^d.
As to `CN(C)c1ccc2c(c1)Oc1cc(N(C)C)ccc1C21c2cc(C(=O)O)ccc2C(=O)N1S(N)(=O)=O` [compound 134], the Φ in data set [1] (setting [3]) is 0.44^a/0.44^c. In addition, in data set [1] (HEPES buffer (pH 7.3)), the Φ is given as 0.44^a/0.44^c, the ε is 83,000^a M^−1cm^−1, the λabs turned out to be 552 nm and the λem is 580 nm. Besides, in data set [2], the D50 is on record as 57^d.
In data set [1] (setting [3]), `CN(C)c1ccc2c(c1)Oc1cc(N(C)C)ccc1C21c2cc(C(=O)O)ccc2C(=O)N1S(=O)(=O)N(C)C` [compound 135] came in with a Φ of 0.43. In data set [1] (HEPES buffer (pH 7.3)), the Φ stood at 0.4, the ε is 88,000^a M^−1cm^−1, the λabs stood at 553 nm and the λem was found to be 580 nm. In data set [2], the D50 was 58^d.
`CN1CCc2cc3c(cc21)[Si](C)(C)c1cc2c(cc1C31c3cc(C(=O)O)ccc3C(=O)N1C#N)CCN2C` [compound 140]: in data set [1] (HEPES buffer (pH 7.3)), the ε is 8,200^a M^−1cm^−1, the λabs worked out at 698 nm and the λem turned out to be 720 nm. In addition, the D50 in data set [2] was >75^d.
